Measured values as given in patent publication US20230257347A1 (priority 2020, published 2023).
Counter-ions that a name gives are not always drawn.

Legend:
[1] = biological target: T1, Nuclear Hormone Androgen Receptor (AR) (Homo sapiens, UniProt P10275); assay: NHR Nuclear Translocation assay, AR; format: cell-based
T1 sequence (P10275 1-920): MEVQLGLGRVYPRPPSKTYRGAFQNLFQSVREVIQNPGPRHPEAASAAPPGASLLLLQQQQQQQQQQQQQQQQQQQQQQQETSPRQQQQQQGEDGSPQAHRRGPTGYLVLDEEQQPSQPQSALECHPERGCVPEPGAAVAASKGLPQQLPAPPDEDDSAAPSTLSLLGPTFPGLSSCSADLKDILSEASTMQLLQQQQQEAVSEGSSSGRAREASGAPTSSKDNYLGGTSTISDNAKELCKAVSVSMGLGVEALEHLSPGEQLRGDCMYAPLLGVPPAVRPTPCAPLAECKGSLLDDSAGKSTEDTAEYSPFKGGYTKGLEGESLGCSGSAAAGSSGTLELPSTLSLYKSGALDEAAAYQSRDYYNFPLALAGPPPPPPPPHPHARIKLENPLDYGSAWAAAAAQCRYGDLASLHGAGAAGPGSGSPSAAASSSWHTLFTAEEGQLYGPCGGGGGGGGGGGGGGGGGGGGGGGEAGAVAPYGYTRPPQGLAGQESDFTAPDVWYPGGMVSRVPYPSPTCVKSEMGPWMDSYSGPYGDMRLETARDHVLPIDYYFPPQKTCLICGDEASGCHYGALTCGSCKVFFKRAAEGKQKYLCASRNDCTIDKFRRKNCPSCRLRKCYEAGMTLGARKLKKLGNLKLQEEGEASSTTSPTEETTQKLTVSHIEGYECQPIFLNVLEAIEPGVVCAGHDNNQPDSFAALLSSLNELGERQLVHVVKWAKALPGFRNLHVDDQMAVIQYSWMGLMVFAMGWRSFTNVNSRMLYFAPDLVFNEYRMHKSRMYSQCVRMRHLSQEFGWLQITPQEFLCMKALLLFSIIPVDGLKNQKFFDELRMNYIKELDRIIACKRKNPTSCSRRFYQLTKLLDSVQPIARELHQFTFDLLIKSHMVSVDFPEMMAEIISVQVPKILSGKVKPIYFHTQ

[2] = biological target: T2, Vascular endothelial growth factor receptor 2 (KDR tyrosine kinase) (VEGFR2) (Homo sapiens, UniProt P35968); assay: biochemical; format: binding
T2 construct: made in house; host or cells: E. coli BL21-derived host (T7 phage) or HEK-293
T2 sequence (P35968 20-1356): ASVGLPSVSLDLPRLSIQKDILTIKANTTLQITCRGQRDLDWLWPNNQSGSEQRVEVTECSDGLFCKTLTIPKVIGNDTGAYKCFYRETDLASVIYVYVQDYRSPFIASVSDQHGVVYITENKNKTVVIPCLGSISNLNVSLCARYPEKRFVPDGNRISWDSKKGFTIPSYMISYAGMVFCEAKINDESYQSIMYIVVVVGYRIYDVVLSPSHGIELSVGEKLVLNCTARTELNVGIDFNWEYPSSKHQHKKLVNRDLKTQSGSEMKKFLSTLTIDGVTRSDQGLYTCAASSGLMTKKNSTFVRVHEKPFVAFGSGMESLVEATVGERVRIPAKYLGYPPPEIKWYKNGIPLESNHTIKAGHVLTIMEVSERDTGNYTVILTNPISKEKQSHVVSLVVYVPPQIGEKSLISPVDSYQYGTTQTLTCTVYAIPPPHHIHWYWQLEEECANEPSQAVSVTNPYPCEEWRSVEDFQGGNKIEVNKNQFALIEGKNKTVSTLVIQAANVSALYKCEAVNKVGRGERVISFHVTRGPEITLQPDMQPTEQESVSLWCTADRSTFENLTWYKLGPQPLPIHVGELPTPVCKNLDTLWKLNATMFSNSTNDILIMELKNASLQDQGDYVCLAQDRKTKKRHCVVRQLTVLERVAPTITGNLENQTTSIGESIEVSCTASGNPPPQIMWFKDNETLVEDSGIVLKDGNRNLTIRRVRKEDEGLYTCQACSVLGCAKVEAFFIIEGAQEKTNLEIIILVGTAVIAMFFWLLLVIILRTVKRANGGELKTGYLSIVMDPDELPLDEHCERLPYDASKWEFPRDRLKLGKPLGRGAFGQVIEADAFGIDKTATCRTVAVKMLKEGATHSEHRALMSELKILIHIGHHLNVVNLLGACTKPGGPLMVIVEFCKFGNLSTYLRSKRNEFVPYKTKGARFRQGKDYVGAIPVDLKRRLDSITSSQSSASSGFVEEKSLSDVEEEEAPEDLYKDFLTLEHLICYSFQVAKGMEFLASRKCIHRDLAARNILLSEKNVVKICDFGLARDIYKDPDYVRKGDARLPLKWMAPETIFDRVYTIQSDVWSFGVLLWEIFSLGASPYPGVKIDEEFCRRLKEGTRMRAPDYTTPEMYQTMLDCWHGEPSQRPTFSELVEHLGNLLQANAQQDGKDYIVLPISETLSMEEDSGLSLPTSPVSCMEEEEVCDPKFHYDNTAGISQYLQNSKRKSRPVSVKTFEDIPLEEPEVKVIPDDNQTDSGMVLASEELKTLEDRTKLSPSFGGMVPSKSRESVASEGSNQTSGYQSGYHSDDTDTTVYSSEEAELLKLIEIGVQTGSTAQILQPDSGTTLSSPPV

[3] = biological target: T3, Adrenergic Receptor α1A (ADRA1A) (Homo sapiens, UniProt P35348); assay: Calcium flux assay, ADRA1A; format: cell-based
T3 sequence (P35348 1-466): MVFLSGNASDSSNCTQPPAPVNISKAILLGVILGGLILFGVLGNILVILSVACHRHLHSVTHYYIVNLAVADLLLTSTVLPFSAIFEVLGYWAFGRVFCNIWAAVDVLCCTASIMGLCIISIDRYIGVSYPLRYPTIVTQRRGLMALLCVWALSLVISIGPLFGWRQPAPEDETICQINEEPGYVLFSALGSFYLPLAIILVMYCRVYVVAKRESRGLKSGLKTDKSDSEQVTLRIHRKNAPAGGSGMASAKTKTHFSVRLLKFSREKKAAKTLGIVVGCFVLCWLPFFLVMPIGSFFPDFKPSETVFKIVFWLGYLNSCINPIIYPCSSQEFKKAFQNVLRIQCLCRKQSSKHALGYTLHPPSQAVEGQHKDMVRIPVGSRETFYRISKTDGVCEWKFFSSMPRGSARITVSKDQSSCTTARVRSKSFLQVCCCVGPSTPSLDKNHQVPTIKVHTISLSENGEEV

Cyclooxygenase 2 (COX2) = biological target: T4, Cyclooxygenase 2 (COX2) (Homo sapiens, UniProt P35354); assay: Enzymatic assay, COX2; format: biochemical
T4 construct: purchased BPS Bioscience
T4 sequence (P35354 18-604): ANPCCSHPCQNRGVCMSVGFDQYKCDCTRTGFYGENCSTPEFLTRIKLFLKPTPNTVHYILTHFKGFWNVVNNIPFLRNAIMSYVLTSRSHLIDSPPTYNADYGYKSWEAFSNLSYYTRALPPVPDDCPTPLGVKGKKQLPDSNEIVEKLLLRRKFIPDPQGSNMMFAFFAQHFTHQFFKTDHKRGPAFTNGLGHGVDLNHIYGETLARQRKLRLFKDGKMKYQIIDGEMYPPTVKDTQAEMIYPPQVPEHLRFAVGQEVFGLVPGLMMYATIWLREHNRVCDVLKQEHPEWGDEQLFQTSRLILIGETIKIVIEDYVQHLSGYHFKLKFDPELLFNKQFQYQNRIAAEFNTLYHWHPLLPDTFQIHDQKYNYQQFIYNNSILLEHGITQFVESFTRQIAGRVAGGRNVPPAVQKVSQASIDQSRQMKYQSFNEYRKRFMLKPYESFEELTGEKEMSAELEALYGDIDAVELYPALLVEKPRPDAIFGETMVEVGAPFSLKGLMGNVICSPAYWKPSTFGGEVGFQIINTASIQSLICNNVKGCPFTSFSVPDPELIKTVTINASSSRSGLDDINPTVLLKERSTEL

hERG = biological target: T5, hERG (Homo sapiens, UniProt Q12809); assay: Ion channel assay, hERG; format: cell-based
T5 construct: expressed in transfected cells
T5 sequence (Q12809 whole entry): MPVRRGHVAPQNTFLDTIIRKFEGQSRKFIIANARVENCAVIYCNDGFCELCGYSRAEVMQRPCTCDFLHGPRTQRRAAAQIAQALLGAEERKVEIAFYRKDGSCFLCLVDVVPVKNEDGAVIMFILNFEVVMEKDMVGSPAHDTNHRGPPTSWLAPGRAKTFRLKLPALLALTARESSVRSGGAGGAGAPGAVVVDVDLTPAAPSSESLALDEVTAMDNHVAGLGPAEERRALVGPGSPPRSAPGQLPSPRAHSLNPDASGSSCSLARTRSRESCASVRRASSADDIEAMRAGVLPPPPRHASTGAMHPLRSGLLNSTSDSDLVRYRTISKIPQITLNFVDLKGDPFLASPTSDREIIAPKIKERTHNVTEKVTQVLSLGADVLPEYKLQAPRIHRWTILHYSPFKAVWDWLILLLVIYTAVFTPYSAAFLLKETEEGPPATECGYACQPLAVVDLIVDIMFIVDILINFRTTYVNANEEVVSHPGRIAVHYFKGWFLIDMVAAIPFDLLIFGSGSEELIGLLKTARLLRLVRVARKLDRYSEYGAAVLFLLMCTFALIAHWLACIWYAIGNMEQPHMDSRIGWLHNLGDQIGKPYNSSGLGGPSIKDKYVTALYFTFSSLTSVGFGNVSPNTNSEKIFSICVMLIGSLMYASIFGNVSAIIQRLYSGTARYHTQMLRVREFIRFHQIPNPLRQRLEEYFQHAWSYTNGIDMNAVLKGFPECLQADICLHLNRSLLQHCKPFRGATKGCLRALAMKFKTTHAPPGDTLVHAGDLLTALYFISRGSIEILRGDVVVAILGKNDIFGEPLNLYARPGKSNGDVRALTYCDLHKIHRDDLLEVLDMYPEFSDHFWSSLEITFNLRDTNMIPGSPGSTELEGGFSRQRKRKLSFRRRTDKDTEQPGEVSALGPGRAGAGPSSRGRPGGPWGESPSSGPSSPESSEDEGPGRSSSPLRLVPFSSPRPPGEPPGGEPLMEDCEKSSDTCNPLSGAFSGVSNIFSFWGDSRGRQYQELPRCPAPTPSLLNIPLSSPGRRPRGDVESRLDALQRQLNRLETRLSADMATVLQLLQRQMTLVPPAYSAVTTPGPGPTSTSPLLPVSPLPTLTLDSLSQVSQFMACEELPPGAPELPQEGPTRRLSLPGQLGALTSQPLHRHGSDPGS

[4] = biological target: T6, Endothelin Receptor Type A (EDNRA) (Homo sapiens, UniProt P25101); assay: Calcium flux assay, EDNRA; format: cell-based
T6 sequence (P25101 21-427): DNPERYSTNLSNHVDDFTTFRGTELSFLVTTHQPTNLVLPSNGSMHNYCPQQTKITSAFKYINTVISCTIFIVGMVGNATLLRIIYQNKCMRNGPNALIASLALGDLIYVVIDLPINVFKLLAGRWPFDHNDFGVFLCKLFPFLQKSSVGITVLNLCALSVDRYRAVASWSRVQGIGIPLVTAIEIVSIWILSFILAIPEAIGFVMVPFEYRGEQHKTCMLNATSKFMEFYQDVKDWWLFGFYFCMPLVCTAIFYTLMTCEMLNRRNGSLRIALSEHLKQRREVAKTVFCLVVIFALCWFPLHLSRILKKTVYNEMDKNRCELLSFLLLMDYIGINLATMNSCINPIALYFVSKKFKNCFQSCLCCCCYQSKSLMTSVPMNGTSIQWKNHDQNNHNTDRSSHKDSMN

[5] = biological target: T7, Rho Associated Coiled-Coil Containing Protein Kinase 1 (ROCK1) (Homo sapiens, UniProt Q13464); assay: KINOMEscan binding assay, ROCK1
T7 construct: made in house; host or cells: E. coli BL21-derived host (T7 phage) or HEK-293
T7 sequence (Q13464 whole entry): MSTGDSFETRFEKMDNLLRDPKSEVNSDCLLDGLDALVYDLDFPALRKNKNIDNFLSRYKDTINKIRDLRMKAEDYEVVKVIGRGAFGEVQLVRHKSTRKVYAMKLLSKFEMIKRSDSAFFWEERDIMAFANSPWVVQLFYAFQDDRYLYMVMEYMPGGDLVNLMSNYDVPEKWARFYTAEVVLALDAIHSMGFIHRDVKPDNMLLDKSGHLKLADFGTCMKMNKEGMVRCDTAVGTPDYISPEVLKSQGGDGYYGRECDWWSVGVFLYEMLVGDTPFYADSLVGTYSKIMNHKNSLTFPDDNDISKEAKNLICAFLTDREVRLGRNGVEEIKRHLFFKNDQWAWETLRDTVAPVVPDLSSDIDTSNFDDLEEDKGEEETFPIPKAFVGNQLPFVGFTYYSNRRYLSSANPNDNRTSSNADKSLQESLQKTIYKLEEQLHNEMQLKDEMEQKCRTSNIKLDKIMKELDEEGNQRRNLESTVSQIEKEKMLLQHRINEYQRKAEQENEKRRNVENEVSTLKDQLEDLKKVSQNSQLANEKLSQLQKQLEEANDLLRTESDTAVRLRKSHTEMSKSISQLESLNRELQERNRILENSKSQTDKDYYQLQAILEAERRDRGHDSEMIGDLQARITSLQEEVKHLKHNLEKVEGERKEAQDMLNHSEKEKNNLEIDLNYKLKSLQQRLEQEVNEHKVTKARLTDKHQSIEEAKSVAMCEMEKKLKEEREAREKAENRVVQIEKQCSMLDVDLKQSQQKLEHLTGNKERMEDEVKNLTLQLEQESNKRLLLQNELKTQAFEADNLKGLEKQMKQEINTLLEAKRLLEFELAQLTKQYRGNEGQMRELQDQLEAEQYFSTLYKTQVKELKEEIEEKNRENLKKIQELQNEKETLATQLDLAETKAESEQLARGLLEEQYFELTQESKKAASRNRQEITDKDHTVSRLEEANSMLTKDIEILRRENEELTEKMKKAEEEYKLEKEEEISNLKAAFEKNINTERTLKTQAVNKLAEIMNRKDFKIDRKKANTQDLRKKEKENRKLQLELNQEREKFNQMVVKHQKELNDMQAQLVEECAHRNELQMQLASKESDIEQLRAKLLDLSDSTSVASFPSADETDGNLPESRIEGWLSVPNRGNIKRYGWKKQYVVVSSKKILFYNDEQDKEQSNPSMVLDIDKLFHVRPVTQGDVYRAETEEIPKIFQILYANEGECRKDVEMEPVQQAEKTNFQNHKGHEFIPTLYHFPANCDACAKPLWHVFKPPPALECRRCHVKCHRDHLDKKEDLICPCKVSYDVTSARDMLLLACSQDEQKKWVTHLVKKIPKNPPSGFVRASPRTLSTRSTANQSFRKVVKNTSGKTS

[6] = biological target: Adrenergic Receptor β2 (ADRB2) (Homo sapiens, UniProt P07550); assay: cAMP assay, ADRB2; format: cell-based
Chain of Adrenergic Receptor β2 (ADRB2) (P07550 whole entry): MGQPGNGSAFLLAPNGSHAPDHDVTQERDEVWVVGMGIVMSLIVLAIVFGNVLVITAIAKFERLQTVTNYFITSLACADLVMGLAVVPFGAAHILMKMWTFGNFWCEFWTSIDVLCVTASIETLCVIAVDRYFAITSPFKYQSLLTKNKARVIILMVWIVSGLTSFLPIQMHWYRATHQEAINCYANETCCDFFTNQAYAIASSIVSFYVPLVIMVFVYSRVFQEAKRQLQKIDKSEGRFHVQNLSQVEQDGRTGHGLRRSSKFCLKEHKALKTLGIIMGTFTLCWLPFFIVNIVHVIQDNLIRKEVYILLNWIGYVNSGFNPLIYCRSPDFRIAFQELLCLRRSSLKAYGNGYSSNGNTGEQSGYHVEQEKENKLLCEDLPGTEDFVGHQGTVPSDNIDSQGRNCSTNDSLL

[7] = biological target: Adenosine Receptor A2A (ADORA2A) (Homo sapiens, UniProt P29274); assay: Calcium flux assay, ADORA2A; format: cell-based
Chain of Adenosine Receptor A2A (ADORA2A) (P29274 whole entry): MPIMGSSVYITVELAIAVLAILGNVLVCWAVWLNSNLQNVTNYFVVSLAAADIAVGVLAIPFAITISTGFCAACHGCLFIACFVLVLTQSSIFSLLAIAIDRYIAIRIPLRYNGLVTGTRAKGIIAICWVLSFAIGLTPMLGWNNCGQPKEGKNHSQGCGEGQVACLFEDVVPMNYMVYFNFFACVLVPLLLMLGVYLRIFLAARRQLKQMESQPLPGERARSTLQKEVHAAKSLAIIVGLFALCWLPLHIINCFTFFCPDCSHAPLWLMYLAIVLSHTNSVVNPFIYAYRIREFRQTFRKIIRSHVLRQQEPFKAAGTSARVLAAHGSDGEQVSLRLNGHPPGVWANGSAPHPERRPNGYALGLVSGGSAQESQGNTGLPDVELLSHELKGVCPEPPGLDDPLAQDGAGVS

SMILES	EC50 [1] [µM]	IC50 [1] [µM]	IC50 [2] [µM]	EC50 [3] [µM]	IC50 [3] [µM]	IC50 (Cyclooxygenase 2 (COX2)) [µM]	IC50 (hERG) [µM]	EC50 [4] [µM]	IC50 [4] [µM]	IC50 [5] [µM]	EC50 [6] [µM]	IC50 [6] [µM]	EC50 [7] [µM]	IC50 [7] [µM]
CNC(C)C(=O)c1c[nH]c2ccc(Br)cc12 (stereo not drawn) [BK-5Br-NM-AMT, 1-(5-bromo-1H-indol-3-yl)-2-(methylamino) propan-1-one hydrochloride]	> 10	> 10	> 10	8.24	> 10	> 10	> 10	> 10	> 10	> 10	> 10	5.44	> 10	> 10
CNC(C)C(=O)c1c[nH]c2ccc(Cl)cc12 (stereo not drawn) [BK-5Cl-NM-AMT, 1-(5-chloro-1H-indol-3-yl)-2-(methylamino) propan-1-one hydrochloride]	> 10	> 10	> 10	> 10	> 10	> 10	> 10	> 10	> 10	> 10	> 10	8.68	> 10	> 10
CNC(C)C(=O)c1c[nH]c2ccc(F)cc12 (stereo not drawn) [BK-5F-NM-AMT, 1-(5-Fluoro-1H-indol-3-yl)-2-(methylamino) propan-1-one hydrochloride]	> 10	> 10	> 10	> 10	> 10	> 10	> 10	> 10	> 10	> 10	> 10	> 10	> 10	> 10
